Legend:
[1] = system: human liver-like three-dimensional construct A′; settings: 10 μmol/l
Procedure: (§1) A DMSO solution of phenytoin was prepared. The obtained drug-containing DMSO solution was added to the culture medium of the human liver-like three-dimensional construct A′ fabricated in Experimental example 3′ such that the concentration of the drug in the medium was 10 μmol/l. The medium was sampled up to 6 days following the drug addition, and the metabolic products in the medium were subjected to separation and structural analysis by a LC/MS/MS method. The abbreviations of the metabolites stand for the following constructs.
as §1, with “Torcetrapib” for “phenytoin”, “method.” for “method. The abbreviations of the metabolites stand for the following constructs.”

[2] = system: human liver-like three-dimensional construct A; assay: Number and particle-size distribution of exosome particles (qNano); type: cell-based; settings: three days after drug addition
Procedure: (§2) The culture medium of Experimental example 5 was centrifuged at 4° C. and 2,000×g for 20 minutes, followed by centrifugation of the collected supernatant at 15,000×g for 30 minutes. To 2.2 mL of each collected sample solution, 1.1 mL of ExoCap Ultracentrifugation/Storage Booster (registered trademark) and 7.7 mL of ultrapure water were added. The resultant was homogeneously stirred and subjected to ultracentrifugation protocol (35,000 rpm, 70 minutes,4° C.). […]
(§3) The number and the particle-size distribution of the exosome particles were measured using qNano (nanoparticle multi-analyzer). In addition, expression of CD9 in the collected exosomes was confirmed by Western blotting. miRNAs contained in a sample extracted from the exosomes using a RNA extraction kit were measured by digital PCR. Furthermore, microRNAs contained in the exosomes were taken out and the amounts of miR-122, miR-192 and miR-1 were quantified by a quantitative PCR method. […]
An increase in the particle number concentration of the exosomes contained in the media was observed only three days after the drug addition. Furthermore, miR-122 was detected in the collected exosomes.

[3] = system: human liver-like three-dimensional construct A; assay: miR-122-5p in exosomes released from the construct, digital PCR; type: cell-based; settings: exosomes from culture medium of Experimental example 5
Procedure: (§4) A DMSO solution of trovafloxacin, a drug that is known to show hepatotoxicity when administered to a human, was prepared. […] Changes in the albumin concentrations in the media up to 24 days following addition of the drug, and the levels of ATP contained in the constructs at the end of the experiment were measured using CellTiter-Glo 3D substrate. Furthermore, tissue sections of the constructs were prepared to obtain images of HE staining and immunostaining for albumin.
as §2, with “added.” for “added. The resultant was homogeneously stirred and subjected to ultracentrifugation protocol (35,000 rpm, 70 minutes,4° C.).”
as §3

monolayer culture system = assay: Albumin concentration in monolayer culture system (standard of comparison); type: cell-based; settings: monolayer culture as standard of comparison (details omitted)
[4] = system: human liver-like three-dimensional construct A; assay: Assessment of hepatotoxicity: albumin concentration in the medium of the construct; type: cell-based; settings: drug 5-1000 μmol/l in medium, up to 24 days
Procedure: as §4
DMSO solutions of 20 kinds of drugs that were known to show hepatotoxicity upon administration to a human were prepared. […] Changes in the albumin concentrations in the media 7 and 14 days following addition of the drug are shown in FIG. 8, in which data were normalized to the albumin concentration in the medium added with DMSO only (taken as 100%).

Row | Structure (SMILES) | metabolic products separated and detected by LC [1] | particle number concentration of the exosomes in the media [2] | miR-122 in the collected exosomes [3] | albumin concentration, monolayer culture system (monolayer culture system) | albumin concentration in the medium [4]
1 | CCOC(=O)N1c2ccc(C(F)(F)F)cc2[C@@H](N(Cc2cc(C(F)(F)F)cc(C(F)(F)F)c2)C(=O)OC)C[C@H]1CC [Torcetrapib] | Two kinds of metabolic products M2 and M5 |  |  |  | 
2 | N[C@@H]1[C@H]2CN(c3nc4c(cc3F)c(=O)c(C(=O)O)cn4-c3ccc(F)cc3F)C[C@@H]12 [Trovafloxacin, trovafloxacin] |  | increase | detected | no decrease | drug concentration-dependent decrease

— US12247223B2, “Human liver-like three-dimensional structure, method for evaluating hepatotoxicity and human liver-like complex” (CYFUSE BIOMEDICAL K.K., priority 2019, dated 2025)
